Laboratory results reported in patent US20080234332A1, “RAF KINASE INHIBITORS CONTAINING A ZINC BINDING MOIETY” (priority 2007, published 2008).

Assays:
Type in all cases: biochemical
HDAC = HDAC fluorimetric assay kit (HeLa nuclear extract); conditions: read-out: HDAC IC50 grade
Protocol: HDAC inhibitors were screened using an HDAC fluorimetric assay kit (AK-500, Biomol, Plymouth Meeting, Pa.). […] Each assay was setup as follows: Defrosted all kit components and kept on ice until use. Diluted HeLa nuclear extract 1:29 in assay buffer (50 mM Tris/Cl, pH 8.0, 137 mM NaCl, 2.7 mM KCl, 1 mM MgCl2). Prepared dilutions of Trichostatin A (TSA, positive control) and tested compounds in assay buffer (5× of final concentration). Diluted Fluor de LysTM Substrate in assay buffer to 100 uM (50 fold=2× final). Diluted Fluor de LysTM developer concentrate 20-fold (e.g. 50 μl plus 950 μl assay buffer) in cold assay buffer. Second, diluted the 0.2 mM Trichostatin A 100-fold in the 1× Developer (e.g. 10 μl in 1 ml; final Trichostatin A concentration in the 1× Developer=2 μM; final concentration after addition to HDAC/Substrate reaction=1 μM). Added assay buffer, diluted trichostatin A or test inhibitor to appropriate wells of the microtiter plate. Added diluted HeLa extract or other HDAC sample to all wells except for negative controls. Allowed diluted Fluor de LysTM Substrate and the samples in the microtiter plate to equilibrate to assay temperature (e.g. 25 or 37° C. Initiated HDAC reactions by adding diluted substrate (25 μl) to each well and mixing thoroughly. Allowed HDAC reactions to proceed for 1 hour and then stopped them by addition of Fluor de LysTM Developer (50 μl). Incubated plate at room temperature (25° C.) for 10-15 min. Read samples in a microtiter-plate reading fluorimeter capable of excitation at a wavelength in the range 350-380 nm and detection of emitted light in the range 440-460 nm.
(§1) The following TABLE B lists compounds representative of the invention and their activity in HDAC, VEGFR2 and RAF assays.

B-Raf = molecular target: T1, B-Raf (Homo sapiens, UniProt P15056); assay: Raf kinase assay (B-Raf kit, MEK-1 substrate, dot blot); conditions: 250 μM ATP; read-out: B-Raf IC50 grade
T1 construct: purchased Upstate 17-359
Protocol: (§2) The Raf kinase assay was performed by following the protocol of Raf kinase assay kit (B-Raf, Upstate, catalog# 17-359; C-Raf, Upstate, catalog# 17-360) with modifications. Briefly, assay buffer, ATP, substrate and Raf kinase were mixed in a 96 well assay plate. The final kinase assay mixture contained 20 mM MOPS, pH7.2, 25 mM β-glycerol phosphate, 5 mM EGTA, 1 mM sodium orthovanadate, 1 mM DTT, 250 μM ATP and 37.5 mM magnesium chloride, 0.1 μg/well of Raf kinase, and 1 μg/well of MEK-1 substrate protein. Assay samples were incubated for 30 min at room temperature. The kinase reaction was stopped by adding EDTA, pH8 to a final concentration of 25 mM. A 10 μl of the reaction sample was spotted onto nitrocellulose filter and dot blot was performed by adding 1 μg/ml of anti-phospho-MEK-1 antibody in the blocking solution (Licor Bioscience, catalogue # 927-40000). The nitrocellulose filter was subsequently incubated with secondary IRDye 800CW goat anti-rabbit antibody (Licor Bioscience, catalogue # 926-32211) before reading the signal on an Odyssey imager (Licor Bioscience).
as §1

C-Raf = C-Raf (Homo sapiens, UniProt P04049); assay: Raf kinase assay (C-Raf kit, MEK-1 substrate, dot blot); conditions: 250 μM ATP; read-out: C-Raf IC50 grade
Protocol: as §2, §1

VEGFR2 = molecular target: T2, VEGFR2 (Homo sapiens, UniProt P35968); assay: HTScan VEGFR2 Kinase Assay (DELFIA); conditions: 200 μM ATP; read-out: VEGFR2 IC50 grade
T2 construct: GST (N); His6 (N); Thrombin cleavage site (N); purchased Cell Signaling Technologies; host or cells: baculovirus expression system
Protocol: The ability of compounds to inhibit VEGFR2 kinase activity was assayed using HTScan™ VEGFR2 Kinase Assay Kits (Cell Signaling Technologies, Danvers, Mass.). […] The protein was purified by one-step affinity chromatography using glutathione-agarose.
Immediately transfer enzyme from −80° C. to ice. Allowed enzyme to thaw on ice. […] Returned immediately to ice. […] Incubated reaction plate at room temperature for 30 minutes. […] Added 100 μl/well primary antibody. Incubated at room temperature for 60 minutes. […] Added 100 μl/well diluted antibody. Incubated at room temperature for 30 minutes. […] Incubated at room temperature for 5 minutes.
as §1

PDGFRβ = PDGFRβ (Homo sapiens, UniProt P09619); assay: PDGFRβ kinase inhibition (Table B); conditions: read-out: PDGFRβ IC50 grade
cKit = cKit (Homo sapiens, UniProt P10721); assay: cKit kinase inhibition (Table B); conditions: read-out: cKit IC50 grade
cKit, sequence (P10721 26-976): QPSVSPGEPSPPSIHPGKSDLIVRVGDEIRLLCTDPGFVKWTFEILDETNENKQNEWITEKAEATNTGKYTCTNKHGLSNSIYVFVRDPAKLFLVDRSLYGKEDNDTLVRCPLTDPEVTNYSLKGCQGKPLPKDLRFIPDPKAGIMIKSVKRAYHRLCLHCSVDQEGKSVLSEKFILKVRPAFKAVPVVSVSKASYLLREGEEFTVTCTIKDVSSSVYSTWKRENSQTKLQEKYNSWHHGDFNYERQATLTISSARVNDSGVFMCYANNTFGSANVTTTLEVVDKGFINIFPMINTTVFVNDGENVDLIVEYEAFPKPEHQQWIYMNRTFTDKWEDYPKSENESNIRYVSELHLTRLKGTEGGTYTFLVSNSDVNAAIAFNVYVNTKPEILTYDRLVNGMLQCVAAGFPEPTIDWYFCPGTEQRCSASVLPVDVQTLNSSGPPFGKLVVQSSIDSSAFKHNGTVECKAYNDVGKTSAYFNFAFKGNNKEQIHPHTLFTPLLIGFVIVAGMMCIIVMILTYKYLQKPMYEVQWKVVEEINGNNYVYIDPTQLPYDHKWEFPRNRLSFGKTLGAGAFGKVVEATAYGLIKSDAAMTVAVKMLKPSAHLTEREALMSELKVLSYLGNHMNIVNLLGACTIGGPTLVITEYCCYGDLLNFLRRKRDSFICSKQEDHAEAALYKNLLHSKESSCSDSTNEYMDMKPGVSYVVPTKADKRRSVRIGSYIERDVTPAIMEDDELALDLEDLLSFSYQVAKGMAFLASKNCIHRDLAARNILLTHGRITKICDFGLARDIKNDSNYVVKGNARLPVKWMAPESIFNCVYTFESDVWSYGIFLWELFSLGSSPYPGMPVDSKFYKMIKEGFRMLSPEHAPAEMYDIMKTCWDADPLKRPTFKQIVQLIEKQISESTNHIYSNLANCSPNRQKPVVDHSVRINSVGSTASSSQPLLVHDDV

PDGFRβ, sequence (P09619 33-1106, species assumed): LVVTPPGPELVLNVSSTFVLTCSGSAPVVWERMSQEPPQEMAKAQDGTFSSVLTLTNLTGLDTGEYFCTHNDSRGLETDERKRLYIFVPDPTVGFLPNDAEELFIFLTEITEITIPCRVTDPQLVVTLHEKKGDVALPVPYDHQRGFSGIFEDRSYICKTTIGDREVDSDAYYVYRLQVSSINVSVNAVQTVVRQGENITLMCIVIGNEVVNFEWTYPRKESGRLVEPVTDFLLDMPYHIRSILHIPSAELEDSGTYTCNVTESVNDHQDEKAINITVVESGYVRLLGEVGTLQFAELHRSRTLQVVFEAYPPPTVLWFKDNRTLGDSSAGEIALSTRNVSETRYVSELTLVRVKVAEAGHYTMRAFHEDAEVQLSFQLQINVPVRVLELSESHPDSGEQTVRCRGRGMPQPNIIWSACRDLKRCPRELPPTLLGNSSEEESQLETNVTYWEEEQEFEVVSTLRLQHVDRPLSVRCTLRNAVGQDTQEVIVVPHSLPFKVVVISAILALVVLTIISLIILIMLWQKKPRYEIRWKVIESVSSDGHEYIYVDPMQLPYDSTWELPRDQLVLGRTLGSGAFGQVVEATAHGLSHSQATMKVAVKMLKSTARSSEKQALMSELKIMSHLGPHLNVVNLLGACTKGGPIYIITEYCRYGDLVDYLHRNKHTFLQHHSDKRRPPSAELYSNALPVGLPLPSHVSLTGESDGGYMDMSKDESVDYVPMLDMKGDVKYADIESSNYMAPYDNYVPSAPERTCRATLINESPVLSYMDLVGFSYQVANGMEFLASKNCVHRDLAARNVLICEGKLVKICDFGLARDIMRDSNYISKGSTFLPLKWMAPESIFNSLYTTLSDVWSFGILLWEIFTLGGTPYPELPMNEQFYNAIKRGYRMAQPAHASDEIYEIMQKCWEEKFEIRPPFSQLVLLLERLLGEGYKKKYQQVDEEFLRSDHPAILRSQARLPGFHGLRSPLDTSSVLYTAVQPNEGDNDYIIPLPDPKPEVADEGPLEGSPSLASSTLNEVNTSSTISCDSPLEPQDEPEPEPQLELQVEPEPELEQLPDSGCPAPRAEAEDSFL
T2 sequence (P35968 805-1356): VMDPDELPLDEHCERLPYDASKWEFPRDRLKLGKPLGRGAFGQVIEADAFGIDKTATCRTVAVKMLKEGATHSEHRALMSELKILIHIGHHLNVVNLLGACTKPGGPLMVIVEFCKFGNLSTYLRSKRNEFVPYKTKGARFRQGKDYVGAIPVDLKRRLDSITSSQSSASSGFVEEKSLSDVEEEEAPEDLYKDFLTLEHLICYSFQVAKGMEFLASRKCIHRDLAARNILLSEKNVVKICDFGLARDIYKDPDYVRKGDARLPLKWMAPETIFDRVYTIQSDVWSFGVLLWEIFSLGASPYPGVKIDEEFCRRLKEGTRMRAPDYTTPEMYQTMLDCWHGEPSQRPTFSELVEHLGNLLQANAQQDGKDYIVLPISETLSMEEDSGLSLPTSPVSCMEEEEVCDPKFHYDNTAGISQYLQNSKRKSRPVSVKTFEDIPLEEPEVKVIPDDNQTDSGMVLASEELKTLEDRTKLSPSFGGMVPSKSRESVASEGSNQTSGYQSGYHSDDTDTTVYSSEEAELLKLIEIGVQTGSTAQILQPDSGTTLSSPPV
C-Raf, sequence (P04049 whole entry Y340D/Y341D, form open): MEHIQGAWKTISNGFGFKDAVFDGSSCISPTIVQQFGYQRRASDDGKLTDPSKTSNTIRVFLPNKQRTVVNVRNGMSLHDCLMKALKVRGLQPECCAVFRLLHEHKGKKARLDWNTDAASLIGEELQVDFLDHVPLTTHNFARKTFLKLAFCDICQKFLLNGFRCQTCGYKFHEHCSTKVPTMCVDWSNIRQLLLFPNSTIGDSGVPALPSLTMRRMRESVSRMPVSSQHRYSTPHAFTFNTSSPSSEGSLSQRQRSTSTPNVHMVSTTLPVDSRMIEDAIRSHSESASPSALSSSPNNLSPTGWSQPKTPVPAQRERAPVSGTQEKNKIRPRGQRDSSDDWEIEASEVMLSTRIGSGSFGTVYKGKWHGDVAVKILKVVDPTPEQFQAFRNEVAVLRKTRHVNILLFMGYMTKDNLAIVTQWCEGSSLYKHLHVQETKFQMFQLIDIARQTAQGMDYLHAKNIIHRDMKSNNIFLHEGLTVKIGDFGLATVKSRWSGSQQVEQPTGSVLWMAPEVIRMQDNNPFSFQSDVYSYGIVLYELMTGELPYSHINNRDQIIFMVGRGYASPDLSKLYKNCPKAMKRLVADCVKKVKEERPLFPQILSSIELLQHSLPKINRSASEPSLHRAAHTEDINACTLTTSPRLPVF
T1 sequence (P15056 whole entry): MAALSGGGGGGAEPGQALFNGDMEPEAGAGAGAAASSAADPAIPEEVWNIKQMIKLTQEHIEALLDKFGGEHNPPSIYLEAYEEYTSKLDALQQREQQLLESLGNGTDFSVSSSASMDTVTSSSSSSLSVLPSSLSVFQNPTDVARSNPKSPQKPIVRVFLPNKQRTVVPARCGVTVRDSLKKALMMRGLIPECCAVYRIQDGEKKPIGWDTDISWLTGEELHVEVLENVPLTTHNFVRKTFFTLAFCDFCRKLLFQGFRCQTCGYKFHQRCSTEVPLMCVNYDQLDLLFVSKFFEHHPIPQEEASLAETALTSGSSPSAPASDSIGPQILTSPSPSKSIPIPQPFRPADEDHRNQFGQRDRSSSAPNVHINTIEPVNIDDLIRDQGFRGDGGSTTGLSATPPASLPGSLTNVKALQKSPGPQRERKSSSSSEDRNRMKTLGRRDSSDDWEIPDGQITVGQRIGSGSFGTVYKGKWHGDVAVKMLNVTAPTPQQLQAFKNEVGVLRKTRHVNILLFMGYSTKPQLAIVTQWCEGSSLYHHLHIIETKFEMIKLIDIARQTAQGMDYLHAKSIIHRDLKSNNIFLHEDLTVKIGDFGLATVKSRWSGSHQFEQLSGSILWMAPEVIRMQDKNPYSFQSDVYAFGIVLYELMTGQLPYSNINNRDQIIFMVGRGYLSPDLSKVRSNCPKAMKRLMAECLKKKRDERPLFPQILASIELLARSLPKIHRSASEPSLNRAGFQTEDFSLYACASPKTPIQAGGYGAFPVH

IC50 (HDAC)	IC50 (VEGFR2)	SMILES	also measured
100 to 1000 nM	< 100 nM	O=C(CCCCCNC(=O)c1cc(Oc2ccc(NC(=O)Nc3ccc(Cl)c(C(F)(F)F)c3)cc2)ccn1)NO [Compound 5, 4-(4-(3-(4-Chloro-3-(trifluoromethyl)phenyl)ureido)phenoxy)-N-(6-(hydroxyamino)-6-oxohexyl)picolinamide]	IC50 (B-Raf): 1000 to 10000 nM; IC50 (C-Raf): 1000 to 10000 nM; IC50 (PDGFRβ): 100 to 1000 nM; IC50 (cKit): < 100 nM
100 to 1000 nM		O=C(CCCCCCNC(=O)c1cc(Oc2ccc(NC(=O)Nc3ccc(Cl)c(C(F)(F)F)c3)cc2)ccn1)NO [Compound 6, 4-(4-(3-(4-chloro-3-(trifluoromethyl)phenyl)ureido)phenoxy)-N-(7-(hydroxyamino)-7-oxoheptyl)picolinamide]	
1000 to 10000 nM		O=C(CCCCC(=O)Nc1cc(Oc2ccc(NC(=O)Nc3ccc(Cl)c(C(F)(F)F)c3)cc2)ccn1)NO [Compound 10, 1-(4-chloro-3-(trifluoromethyl)phenyl)-3-(4-(2-(6-(hydroxyamino)-6-oxohexanamido)pyridin-4-yloxy)phenyl)urea]	
100 to 1000 nM	< 100 nM	O=C(CCCCCCC(=O)Nc1cc(Oc2ccc(NC(=O)Nc3ccc(Cl)c(C(F)(F)F)c3)cc2)ccn1)NO [Compound 12, 1-(4-chloro-3-(trifluoromethyl)phenyl)-3-(4-(2-(8-(hydroxyamino)-8-oxooctanamido)pyridin-4-yloxy)phenyl)urea]	IC50 (C-Raf): < 100 nM; IC50 (PDGFRβ): < 100 nM; IC50 (cKit): < 100 nM
100 to 1000 nM		O=C(CCCCCNCc1cc(Oc2ccc(NC(=O)Nc3ccc(Cl)c(C(F)(F)F)c3)cc2)ccn1)NO [Compound 16, 6-((4-(4-(3-(4-chloro-3-(trifluoromethyl)phenyl)ureido)phenoxy)pyridin-2-yl)methylamino)-N-hydroxyhexanamide]	
100 to 1000 nM	100 to 1000 nM	O=C(CCCCCCNCc1cc(Oc2ccc(NC(=O)Nc3ccc(Cl)c(C(F)(F)F)c3)cc2)ccn1)NO [Compound 17, 7-((4-(4-(3-(4-chloro-3-(trifluoromethyl)phenyl)ureido)phenoxy)pyridin-2-yl)methylamino)-N-hydroxyheptanamide]	
100 to 1000 nM	100 to 1000 nM	O=C(CCCCCCCNCc1cc(Oc2ccc(NC(=O)Nc3ccc(Cl)c(C(F)(F)F)c3)cc2)ccn1)NO [Compound 18, 8-((4-(4-(3-(4-Chloro-3-(trifluoromethyl)phenyl)ureido)phenoxy)pyridin-2-yl)methylamino)-N-hydroxyoctanamide]	
100 to 1000 nM	< 100 nM	O=C(CCCCC(=O)NCc1cc(Oc2ccc(NC(=O)Nc3ccc(Cl)c(C(F)(F)F)c3)cc2)ccn1)NO [Compound 21, N^1-((4-(4-(3-(4-chloro-3(trifluoromethyl)phenyl)ureido)phenoxy)pyridin-2-yl)methyl)-N^6-hydroxyadipamide]	IC50 (PDGFRβ): 100 to 1000 nM; IC50 (cKit): < 100 nM
100 to 1000 nM		O=C(CCCCCn1ccc(Oc2ccc(NC(=O)Nc3ccc(Cl)c(C(F)(F)F)c3)cc2)cc1=O)NO [Compound 27]	
1000 to 10000 nM		O=C(CCCOc1cc(Oc2ccc(NC(=O)Nc3ccc(Cl)c(C(F)(F)F)c3)cc2)ccn1)NO [Compound 31]	
100 to 1000 nM	< 100 nM	O=C(CCCCOc1cc(Oc2ccc(NC(=O)Nc3ccc(Cl)c(C(F)(F)F)c3)cc2)ccn1)NO [Compound 32]	
1000 to 10000 nM		O=C(CCCCCOc1cc(Oc2ccc(NC(=O)Nc3ccc(Cl)c(C(F)(F)F)c3)cc2)ccn1)NO [Compound 33]	
100 to 1000 nM		O=C(CCCCCCOc1cc(Oc2ccc(NC(=O)Nc3ccc(Cl)c(C(F)(F)F)c3)cc2)ccn1)NO [Compound 34]	

The remaining lines, values behind:

SMILES	IC50 (HDAC)	IC50 (VEGFR2)	also measured
C[C@@H](NC(=O)c1cc(Oc2ccc(NC(=O)Nc3ccc(Cl)c(C(F)(F)F)c3)cc2)ccn1)C(=O)NO [Compound 1, (R)-4-(4-(3-(4-chloro-3-(trifluoromethyl)phenyl)ureido)phenoxy)-N-(1-(hydroxyamino)-1-oxopropan-2-yl)picolinamide]	1000 to 10000 nM		
O=C(CCCNC(=O)c1cc(Oc2ccc(NC(=O)Nc3ccc(Cl)c(C(F)(F)F)c3)cc2)ccn1)NO [Compound 3, 4-(4-(3-(4-chloro-3-(trifluoromethyl)phenyl)ureido)phenoxy)-N-(4-(hydroxyamino)-4-oxobutyl)picolinamide]	1000 to 10000 nM		
O=C(CCCCCCCNC(=O)c1cc(Oc2ccc(NC(=O)Nc3ccc(Cl)c(C(F)(F)F)c3)cc2)ccn1)NO [Compound 7, 4-(4-(3-(4-chloro-3-(trifluoromethyl)phenyl)ureido)phenoxy)-N-(8-(hydroxyamino)-8-oxooctyl)picolinamide]	1000 to 10000 nM	100 to 1000 nM	IC50 (PDGFRβ): 100 to 1000 nM; IC50 (cKit): < 100 nM
O=C(CCCC(=O)Nc1cc(Oc2ccc(NC(=O)Nc3ccc(Cl)c(C(F)(F)F)c3)cc2)ccn1)NO [Compound 9, 1-(4-chloro-3-(trifluoromethyl)phenyl)-3-(4-(2-(5-(hydroxyamino)-5-oxopentanamido)pyridin-4-yloxy)phenyl)urea]	100 to 1000 nM	< 100 nM	
O=C(CCC(=O)NCc1cc(Oc2ccc(NC(=O)Nc3ccc(Cl)c(C(F)(F)F)c3)cc2)ccn1)NO [Compound 19, N^1-((4-(4-(3-(4-chloro-3-(trifluoromethyl)phenyl)ureido)phenoxy)pyridin-2-yl)methyl)-N^4-hydroxysuccinamide]	100 to 1000 nM		
O=C(CCCC(=O)NCc1cc(Oc2ccc(NC(=O)Nc3ccc(Cl)c(C(F)(F)F)c3)cc2)ccn1)NO [Compound 20, N^1-((4-(4-(3-(4-chloro-3(trifluoromethyl)phenyl)ureido)phenoxy)pyridin-2-yl)methyl)-N^5-hydroxyglutaramide]	100 to 1000 nM	< 100 nM	
O=C(CCCCCCC(=O)NCc1cc(Oc2ccc(NC(=O)Nc3ccc(Cl)c(C(F)(F)F)c3)cc2)ccn1)NO [Compound 23, N^1-((4-(4-(3-(4-chloro-3(trifluoromethyl)phenyl)ureido)phenoxy)pyridin-2-yl)methyl)-N^8-hydroxyoctanediamide]	100 to 1000 nM	< 100 nM	IC50 (PDGFRβ): 100 to 1000 nM; IC50 (cKit): < 100 nM
O=C(CCCn1ccc(Oc2ccc(NC(=O)Nc3ccc(Cl)c(C(F)(F)F)c3)cc2)cc1=O)NO [Compound 25]	1000 to 10000 nM		
O=C(CCCCn1ccc(Oc2ccc(NC(=O)Nc3ccc(Cl)c(C(F)(F)F)c3)cc2)cc1=O)NO [Compound 26]	1000 to 10000 nM		
O=C(CCCCCCn1ccc(Oc2ccc(NC(=O)Nc3ccc(Cl)c(C(F)(F)F)c3)cc2)cc1=O)NO [Compound 28]	100 to 1000 nM		
O=C(Nc1ccc(Oc2ccnc(C(=O)NO)c2)cc1)Nc1ccc(Cl)c(C(F)(F)F)c1 [Compound 36, 4-(4-(3-(4-chloro-3-(trifluoromethyl)phenyl)ureido)phenoxy)-N-hydroxypicolinamide]	> 10000 nM	1000 to 10000 nM	
